≈ marks a conversion by molar mass, not a printed value.
Experiments:
Type in all cases: functional
Staphylococcus aureus [1] = assay: Antibacterial activity against methicillin-resistant Staphylococcus aureus assessed as percent resistant isolates by broth microdilution method
Staphylococcus aureus [2] = assay: Antibacterial activity against methicillin-susceptible Staphylococcus aureus assessed as percent resistant isolates by broth microdilution method
Staphylococcus [3] = assay: Antibacterial activity against methicillin-resistant coagulase-negative Staphylococcus by broth microdilution method
Enterococcus faecalis [4] = assay: Antibacterial activity against vancomycin-susceptible Enterococcus faecalis assessed as percent resistant isolates by broth microdilution method
Staphylococcus [5] = assay: Antibacterial activity against methicillin-resistant coagulase-negative Staphylococcus assessed as percent susceptible isolates by broth microdilution method
Enterococcus faecium [6] = assay: Antibacterial activity against vancomycin-susceptible Enterococcus faecium assessed as percent susceptible isolates by broth microdilution method
Enterococcus faecium [7] = assay: Antibacterial activity against vancomycin-resistant Enterococcus faecium assessed as percent resistant isolates by broth microdilution method
Enterococcus faecalis [8] = assay: Antibacterial activity against vancomycin-resistant Enterococcus faecalis assessed as percent resistant isolates by broth microdilution method
Enterococcus faecium [9] = assay: Antibacterial activity against vancomycin-susceptible Enterococcus faecium assessed as percent resistant isolates by broth microdilution method
Staphylococcus aureus [10] = assay: Antibacterial activity against methicillin-susceptible Staphylococcus aureus by broth microdilution method
Enterococcus faecium [11] = assay: Antibacterial activity against vancomycin-susceptible Enterococcus faecium by broth microdilution method
Staphylococcus aureus [12] = assay: Antibacterial activity against methicillin-resistant Staphylococcus aureus by broth microdilution method
Enterococcus faecalis [13] = assay: Antibacterial activity against vancomycin-susceptible Enterococcus faecalis by broth microdilution method
Staphylococcus [14] = assay: Antibacterial activity against methicillin-susceptible coagulase-negative Staphylococcus assessed as percent susceptible isolates by broth microdilution method
Staphylococcus [15] = assay: Antibacterial activity against methicillin-resistant coagulase-negative Staphylococcus assessed as percent resistant isolates by broth microdilution method
Enterococcus faecalis [16] = assay: Antibacterial activity against vancomycin-resistant Enterococcus faecalis by broth microdilution method
Enterococcus faecalis [17] = assay: Antibacterial activity against vancomycin-resistant Enterococcus faecalis assessed as percent susceptible isolates by broth microdilution method
Enterococcus faecalis [18] = assay: Antibacterial activity against vancomycin-susceptible Enterococcus faecalis assessed as percent susceptible isolates by broth microdilution method
Enterococcus faecium [19] = assay: Antibacterial activity against vancomycin-resistant Enterococcus faecium by broth microdilution method
Enterococcus faecium [20] = assay: Antibacterial activity against vancomycin-resistant Enterococcus faecium assessed as percent susceptible isolates by broth microdilution method
Staphylococcus [21] = assay: Antibacterial activity against methicillin-susceptible coagulase-negative Staphylococcus by broth microdilution method
Enterococcus faecalis [22] = assay: Selectivity ratio of MBC to MIC for Enterococcus faecalis
Staphylococcus [23] = assay: Selectivity ratio of MBC to MIC for coagulase-negative Staphylococcus
[24] = Selectivity ratio of MIC90 for vancomycin-resistant Enterococcus faecium to MIC90 for vancomycin-resistant Enterococcus faecalis
Staphylococcus aureus [25] = assay: Selectivity ratio of MIC50 for methicillin-susceptible Staphylococcus aureus to MIC50 for methicillin-resistant Staphylococcus aureus
Staphylococcus aureus [26] = assay: Selectivity ratio of MBC to MIC for Staphylococcus aureus
Staphylococcus [27] = assay: Antibacterial activity against Staphylococcus by agar dilution technique
Enterococcus faecium [28] = assay: Selectivity ratio of MBC to MIC for Enterococcus faecium
[29] = Selectivity ratio of MIC50 for vancomycin-resistant Enterococcus faecium to MIC50 for vancomycin-resistant Enterococcus faecalis
Staphylococcus aureus [30] = assay: Antibacterial activity against linezolid-nonsusceptible Staphylococcus aureus by broth microdilution method
Enterococcus = assay: Antibacterial activity against Enterococcus by agar dilution technique
[31] = Selectivity ratio of MIC50 for vancomycin-susceptible Enterococcus faecium to MIC50 for vancomycin-susceptible Enterococcus faecalis

| Compound | Activity (Staphylococcus aureus [1]) | Activity (Staphylococcus aureus [2]) | MIC50 (Staphylococcus [3]) | MIC90 (Staphylococcus [3]) | MIC50 (Staphylococcus aureus [10]) | MIC90 (Staphylococcus aureus [10]) | MIC50 (Enterococcus faecium [11]) | MIC90 (Enterococcus faecium [11]) | MIC50 (Staphylococcus aureus [12]) | MIC90 (Staphylococcus aureus [12]) | MIC (Enterococcus faecalis [13]) | MIC50 (Enterococcus faecalis [13]) | MIC90 (Enterococcus faecalis [13]) | MIC (Enterococcus faecalis [16]) | MIC50 (Enterococcus faecalis [16]) | MIC90 (Enterococcus faecalis [16]) | MIC50 (Enterococcus faecium [19]) | MIC90 (Enterococcus faecium [19]) | MIC50 (Staphylococcus [21]) | MIC90 (Staphylococcus [21]) | also measured |
| --- | --- | --- | --- | --- | --- | --- | --- | --- | --- | --- | --- | --- | --- | --- | --- | --- | --- | --- | --- | --- | --- |
| C[C@H]1COc2c(N3CCN(C)CC3)c(F)cc3c(=O)c(C(=O)O)cn1c23.C[C@H]1COc2c(N3CCN(C)CC3)c(F)cc3c(=O)c(C(=O)O)cn1c23.O [LEVOFLOXACIN] | 56.3% | 9.3% | – | – | – | – | – | – | – | – | – | – | – | – | – | – | – | – | – | – | – |
| CN[C@H](CC(C)C)C(=O)N[C@H]1C(=O)N[C@@H](CC(N)=O)C(=O)N[C@H]2C(=O)N[C@H]3C(=O)N[C@H](C(=O)N[C@H](C(=O)O)c4cc(O)cc(O)c4-c4cc3ccc4O)[C@H](O)c3ccc(c(Cl)c3)Oc3cc2cc(c3O[C@@H]2O[C@H](CO)[C@@H](O)[C@H](O)[C@H]2O[C@H]2C[C@](C)(N)[C@H](O)[C@H](C)O2)Oc2ccc(cc2Cl)[C@H]1O [VANCOMYCIN] | 15.6% | 0% | 2 µg/mL (≈ 1.38 µM) | 2 µg/mL (≈ 1.38 µM) | 1 µg/mL (≈ 0.69 µM) | 1 µg/mL (≈ 0.69 µM) | > 0.5 µg/mL | 1 µg/mL (≈ 0.69 µM) | 1 µg/mL (≈ 0.69 µM) | 16 µg/mL (≈ 11 µM) | 1 µg/mL (≈ 0.69 µM) | 1 µg/mL (≈ 0.69 µM) | 1 µg/mL (≈ 0.69 µM) | > 16 µg/mL | > 16 µg/mL | > 16 µg/mL | > 16 µg/mL | > 16 µg/mL | 1 µg/mL (≈ 0.69 µM) | 2 µg/mL (≈ 1.38 µM) | Activity (Enterococcus faecalis [4]): 0%; Activity (Staphylococcus [5]): 100%; Activity (Enterococcus faecium [6]): 100%; Activity (Enterococcus faecium [7]): 100%; Activity (Enterococcus faecalis [8]): 100%; Activity (Enterococcus faecium [9]): 0%; Activity (Staphylococcus [14]): 100%; Activity (Staphylococcus [15]): 0%; Activity (Enterococcus faecalis [17]): 0%; Activity (Enterococcus faecalis [18]): 100%; MIC (Enterococcus faecium [19]): > 16 µg/mL; Activity (Enterococcus faecium [20]): 0% |
| CO[C@H]1/C=C/O[C@@]2(C)Oc3c(C)c(O)c4c(O)c(c(/C=N/N5CCN(C)CC5)c(O)c4c3C2=O)NC(=O)/C(C)=C\C=C\[C@H](C)[C@H](O)[C@@H](C)[C@@H](O)[C@@H](C)[C@H](OC(C)=O)[C@@H]1C [RIFAMPIN] | 18.8% | 2.3% | – | – | – | – | – | – | – | – | – | – | – | – | – | – | – | – | – | – | – |
| CC[C@H]1OC(=O)[C@H](C)[C@@H](O[C@H]2C[C@@](C)(OC)[C@@H](O)[C@H](C)O2)[C@H](C)[C@@H](O[C@@H]2O[C@H](C)C[C@H](N(C)C)[C@H]2O)[C@](C)(O)C[C@@H](C)C(=O)[C@H](C)[C@@H](O)[C@]1(C)O [ERYTHROMYCIN] | 87.5% | 16.3% | – | – | – | – | – | – | – | – | – | – | – | – | – | – | – | – | – | – | – |
| CCC[C@@H]1C[C@@H](C(=O)N[C@@H]([C@H]2O[C@H](SC)[C@H](O)[C@@H](O)[C@H]2O)[C@H](C)Cl)N(C)C1 [CLINDAMYCIN] | 43.8% | 2.3% | – | – | – | – | – | – | – | – | – | – | – | – | – | – | – | – | – | – | – |
| CCc1c(Cl)c(O)c(Cl)c(O)c1C(=O)O[C@H]1[C@H](O)[C@H](OC)[C@H](OC/C2=C\C=C\C[C@H](O)/C(C)=C/[C@H](CC)[C@@H](O[C@@H]3OC(C)(C)[C@@H](OC(=O)C(C)C)[C@H](O)[C@@H]3O)/C(C)=C/C(C)=C/C[C@@H]([C@@H](C)O)OC2=O)O[C@@H]1C [FIDAXOMICIN] | – | – | 1 µg/mL (≈ 0.945 µM) | 4 µg/mL (≈ 3.78 µM) | 8 µg/mL (≈ 7.56 µM) | 8 µg/mL (≈ 7.56 µM) | 4 µg/mL (≈ 3.78 µM) | 4 µg/mL (≈ 3.78 µM) | 4 µg/mL (≈ 3.78 µM) | 8 µg/mL (≈ 7.56 µM) | 2 µg/mL (≈ 1.89 µM) | 2 µg/mL (≈ 1.89 µM) | 4 µg/mL (≈ 3.78 µM) | 2 µg/mL (≈ 1.89 µM) | 2 µg/mL (≈ 1.89 µM) | 2 µg/mL (≈ 1.89 µM) | 4 µg/mL (≈ 3.78 µM) | 4 µg/mL (≈ 3.78 µM) | 2 µg/mL (≈ 1.89 µM) | 4 µg/mL (≈ 3.78 µM) | Selectivity ratio (Enterococcus faecalis [22]): >=16; Selectivity ratio (Staphylococcus [23]): >=16; Ratio [24]: 2; Ratio (Staphylococcus aureus [25]): 2; Selectivity ratio (Staphylococcus aureus [26]): >=16; MIC90 (Staphylococcus [27]): 2 µg/mL (≈ 1.89 µM); Selectivity ratio (Enterococcus faecium [28]): >=16; Ratio [29]: 2; MIC (Staphylococcus aureus [30]): > 4 µg/mL; MIC90 (Enterococcus): 8 µg/mL (≈ 7.56 µM); Ratio [31]: 2 |

Reference: ChEMBL document CHEMBL1255485, “In vitro activity of fidaxomicin (OPT-80) tested against contemporary clinical isolates of Staphylococcus spp. and Enterococcus spp” (2010)
